Reference: US7888464B2, “Hepatitis C virus inhibitors” (Bristol-Myers Squibb Company, priority 2006, dated 2011)

What was measured:
Type in all cases: biochemical
[1] = target: T1, HCV NS3/4A protease complex, BMS strain (genotype 1a) (UniProt P27958, species not given/STRAIN_BMS); assay: FRET peptide assay to monitor HCV NS3/4A proteolytic activity (BMS strain); settings: BMS strain; read-out: IC50 against the NS3/4A BMS strain in the enzyme assay
T1 construct: "DNA encoding the recombinant HCV NS3/4A protease complex (amino acids 1027 to 1711) for these strains" (said of H77 and J4L6S, not expressly of BMS); given for the H77/J4L6S constructs only
T1 sequence (P27958 1027-1657, stated change not applied, one chain of several): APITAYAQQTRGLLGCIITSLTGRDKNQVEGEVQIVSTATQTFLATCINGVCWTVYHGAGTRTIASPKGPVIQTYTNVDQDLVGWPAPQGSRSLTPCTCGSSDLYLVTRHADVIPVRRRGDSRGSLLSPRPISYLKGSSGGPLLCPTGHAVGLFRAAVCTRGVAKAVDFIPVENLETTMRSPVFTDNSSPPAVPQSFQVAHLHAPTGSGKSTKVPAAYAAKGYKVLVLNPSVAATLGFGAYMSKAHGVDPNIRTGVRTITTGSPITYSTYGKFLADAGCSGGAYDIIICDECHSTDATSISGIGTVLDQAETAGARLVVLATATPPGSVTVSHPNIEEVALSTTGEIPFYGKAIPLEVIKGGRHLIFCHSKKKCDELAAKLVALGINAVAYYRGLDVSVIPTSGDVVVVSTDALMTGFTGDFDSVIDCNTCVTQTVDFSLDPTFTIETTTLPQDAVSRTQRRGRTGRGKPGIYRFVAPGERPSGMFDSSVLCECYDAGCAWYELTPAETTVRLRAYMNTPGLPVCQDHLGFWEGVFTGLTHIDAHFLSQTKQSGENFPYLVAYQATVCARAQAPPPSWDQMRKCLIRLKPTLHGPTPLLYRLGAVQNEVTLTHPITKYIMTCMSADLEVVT
From the text: (§1) HCV NS3 protease complexes, derived from the BMS strain, H77 strain or J4L6S strain, were generated, as described below. These purified recombinant proteins were generated for use in a homogeneous assay (see below) to provide an indication of how effective compounds of the present disclosure would be in inhibiting HCV NS3 proteolytic activity.
Serum from an HCV-infected patient was obtained from Dr. T. Wright, San Francisco Hospital. An engineered full-length cDNA (compliment deoxyribonucleic acid) template of the HCV genome (BMS strain) was constructed from DNA fragments obtained by reverse transcription-PCR(RT-PCR) of serum RNA (ribonucleic acid) and using primers selected on the basis of homology between other genotype la strains. From the determination of the entire genome sequence, a genotype la was assigned to the HCV isolate according to the classification of Simmonds et al. (See P Simmonds, K A Rose, S Graham, S W Chan, F McOmish, B C Dow, E A Follett, P L Yap and H Marsden, J. Clin. Microbiol., 31(6), 1493-1503 (1993)). […] The infectious clones, H77 (1a genotype) and J4L6S (1b genotype) were obtained from R. Purcell (NIH) and the sequences are published in Genbank (AAB67036, see Yanagi, M., Purcell, R. H., Emerson, S. U. and Bukh, J. Proc. Natl. Acad. Sci. U.S.A. 94(16), 8738-8743 (1997); AF054247, see Yanagi, M., St Claire, M., Shapiro, M., Emerson, S. U., Purcell, R. H. and Bukh, J, Virology 244 (1), 161-172. (1998)).
The H77 and J4L6S strains were used for production of recombinant NS3/4A protease complexes. DNA encoding the recombinant HCV NS3/4A protease complex (amino acids 1027 to 1711) for these strains were manipulated as described by P. Gallinari et al. (see Gallinari P, Paolini C, Brennan D, Nardi C, Steinkuhler C, De Francesco R. Biochemistry. 38(17):5620-32, (1999)). Briefly, a three-lysine solubilizing tail was added at the 3′-end of the NS4A coding region. The cysteine in the P1 position of the NS4A-NS4B cleavage site (amino acid 1711) was changed to a glycine to avoid the proteolytic cleavage of the lysine tag. Furthermore, a cysteine to serine mutation was introduced by PCR at amino acid position 1454 to prevent the autolytic cleavage in the NS3 helicase domain. The variant DNA fragment was cloned in the pET21b bacterial expression vector (Novagen) and the NS3/4A complex was expressed in Escherichia. coli strain BL21 (DE3) (Invitrogen) following the protocol described by P. Gallinari et al. (see Gallinari P, Brennan D, Nardi C, Brunetti M, Tomei L, Steinkuhler C, De Francesco R., J. Virol. 72(8):6758-69 (1998)) with modifications. Briefly, the NS3/4A protease complex expression was induced with 0.5 millimolar (mM) Isopropyl β-D-1-thiogalactopyranoside (IPTG) for 22 hours (h) at 20° C. A typical fermentation (1 Liter (L)) yielded approximately 10 grams (g) of wet cell paste. The cells were resuspended in lysis buffer (10 mL/g) consisting of 25 mM N-(2-Hydroxyethyl)piperazine-N′-(2-Ethane Sulfonic acid) (HEPES), pH 7.5, 20% glycerol, 500 mM Sodium Chloride (NaCl), 0.5% Triton X-100, 1 microgram/milliliter (“μg/mL”) lysozyme, 5 mM Magnesium Chloride (MgCl2), 1 μg/ml DnaseI, 5 mM β-Mercaptoethanol (βME), Protease inhibitor-Ethylenediamine Tetraacetic acid (EDTA) free (Roche), homogenized and incubated for 20 minutes (min) at 4° C. The homogenate was sonicated and clarified by ultra-centrifugation at 235000 g for 1 hour (h) at 4° C. Imidazole was added to the supernatant to a final concentration of 15 mM and the pH adjusted to 8.0. The crude protein extract was loaded on a Nickel-Nitrilotriacetic acid (Ni-NTA) column pre-equilibrated with buffer B (25 mM HEPES, pH 8.0, 20% glycerol, 500 mM NaCl, 0.5% Triton X-100, 15 mM imidazole, 5 mM βME). The sample was loaded at a flow rate of 1 mL/min. The column was washed with 15 column volumes of buffer C (same as buffer B except with 0.2% Triton X-100). The protein was eluted with 5 column volumes of buffer D (same as buffer C except with 200 mM Imidazole). […]

[2] = target: T2, HCV NS3/4A protease complex, H77 strain (1a genotype) (Hepatitis C virus genotype 1a, UniProt P27958, C1454S/C1711G); assay: FRET peptide assay to monitor HCV NS3/4A proteolytic activity (H77 strain); settings: read-out: IC50 against NS3/4A H77 strain
T2 construct: DNA encoding the recombinant HCV NS3/4A protease complex (amino acids 1027 to 1711) for these strains; made in house; host or cells: Escherichia coli BL21 (DE3), pET21b
T2 sequence (P27958 1027-1711 C1454S/C1711G, one chain of several): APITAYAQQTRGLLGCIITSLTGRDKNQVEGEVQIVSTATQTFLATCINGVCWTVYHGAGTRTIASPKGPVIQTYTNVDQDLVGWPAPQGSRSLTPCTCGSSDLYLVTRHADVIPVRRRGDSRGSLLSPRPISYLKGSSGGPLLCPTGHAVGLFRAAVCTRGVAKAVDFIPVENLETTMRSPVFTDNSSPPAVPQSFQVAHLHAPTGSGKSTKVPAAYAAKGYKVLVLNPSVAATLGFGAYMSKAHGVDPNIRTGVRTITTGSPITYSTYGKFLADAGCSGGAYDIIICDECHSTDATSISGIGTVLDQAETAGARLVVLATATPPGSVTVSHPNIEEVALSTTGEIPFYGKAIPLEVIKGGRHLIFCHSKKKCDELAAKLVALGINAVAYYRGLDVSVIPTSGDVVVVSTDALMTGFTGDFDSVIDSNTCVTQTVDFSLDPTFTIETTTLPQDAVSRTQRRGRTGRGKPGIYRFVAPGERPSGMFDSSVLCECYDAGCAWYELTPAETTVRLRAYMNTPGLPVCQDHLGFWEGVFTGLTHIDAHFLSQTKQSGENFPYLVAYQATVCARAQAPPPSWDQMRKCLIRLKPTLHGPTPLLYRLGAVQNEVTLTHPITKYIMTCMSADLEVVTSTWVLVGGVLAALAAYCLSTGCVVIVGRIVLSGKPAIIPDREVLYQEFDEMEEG
From the text: as §1
(§2) Serum from an HCV-infected patient was obtained from Dr. T. Wright, San Francisco Hospital. An engineered full-length cDNA (compliment deoxyribonucleic acid) template of the HCV genome (BMS strain) was constructed from DNA fragments obtained by reverse transcription-PCR(RT-PCR) of serum RNA (ribonucleic acid) and using primers selected on the basis of homology between other genotype la strains. From the determination of the entire genome sequence, a genotype la was assigned to the HCV isolate according to the classification of Simmonds et al. (See P Simmonds, K A Rose, S Graham, S W Chan, F McOmish, B C Dow, E A Follett, P L Yap and H Marsden, J. Clin. Microbiol., 31(6), 1493-1503 (1993)). […]

[3] = target: T3, HCV NS3/4A protease complex, J4L6S strain (1b genotype) (Hepatitis C virus genotype 1b, UniProt O92972, C1454S/C1711G); assay: FRET peptide assay to monitor HCV NS3/4A proteolytic activity (J4L6S strain); settings: read-out: IC50 against NS3/4A J4L6S strain
T3 construct: DNA encoding the recombinant HCV NS3/4A protease complex (amino acids 1027 to 1711) for these strains; made in house; host or cells: Escherichia coli BL21 (DE3), pET21b
T3 sequence (O92972 1027-1711 C1454S/C1711G, one chain of several): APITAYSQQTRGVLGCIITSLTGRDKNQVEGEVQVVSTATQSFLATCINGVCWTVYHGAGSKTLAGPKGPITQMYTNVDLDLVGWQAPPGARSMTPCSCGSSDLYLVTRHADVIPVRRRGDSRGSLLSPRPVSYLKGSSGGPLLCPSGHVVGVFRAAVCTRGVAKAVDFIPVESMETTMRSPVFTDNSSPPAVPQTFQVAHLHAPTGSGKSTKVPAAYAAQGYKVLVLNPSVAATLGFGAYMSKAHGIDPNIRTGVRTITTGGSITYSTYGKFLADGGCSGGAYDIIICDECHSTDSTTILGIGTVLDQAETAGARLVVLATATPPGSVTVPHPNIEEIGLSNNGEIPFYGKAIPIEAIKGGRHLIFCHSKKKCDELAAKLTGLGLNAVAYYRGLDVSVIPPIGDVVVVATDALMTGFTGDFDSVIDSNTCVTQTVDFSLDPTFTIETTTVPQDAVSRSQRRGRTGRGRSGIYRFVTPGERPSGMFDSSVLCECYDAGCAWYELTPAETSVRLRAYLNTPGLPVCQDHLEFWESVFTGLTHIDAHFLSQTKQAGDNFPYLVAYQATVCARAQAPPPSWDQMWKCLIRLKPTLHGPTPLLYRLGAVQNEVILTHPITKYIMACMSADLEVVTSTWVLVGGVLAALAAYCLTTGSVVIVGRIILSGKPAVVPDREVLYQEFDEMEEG
From the text: as §1, §2

Compound: C=C[C@@H]1C[C@]1(NC(=O)[C@@H]1C[C@@](O)(c2ccc(-c3ccccc3)cc2)CN1C(=O)[C@@H](NC(=O)OC(C)(C)C)C(C)(C)C)C(=O)NS(=O)(=O)C1CC1 [Compound 3]
- IC50 [1]: 4.4 nM
- IC50 [2]: 1.6 nM
- IC50 [3]: 1.1 nM
